The source of these data is patent US20240239806A1, “COMPOUNDS, COMPOSITIONS AND METHODS OF TREATING DISORDERS” (Chengdu Anticancer Bioscience, Ltd., priority 2021, published 2024).

The test system of one assay is RPEMYC^H2B-GFP cells. Description: Phenotypic screening assay (mitotic arrest, polyploidy). To be noted: 1 nM to 30 μM; for IC50: read-out: Proliferative arrest (>50%). The assay is classed as cell-based. In a few lines: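 RPE cells expressing MYC and H2B-EGFP treated with compound at 1 nM–30 μM; mitotic index scored at 24 h and polyploidy (DNA content) at 48 h by automated imaging, with reads at 24, 48 or 72 h. Hits show transient mitotic arrest followed by polyploid accumulation.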

The test system of assay [1] is A549. Nature of the assay: MECP in cancer cell line. Particulars: Homo sapiens. The format is cell-based. In a few lines:
(§1)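 Imaging read-out (IN-Cell 2000): mitotic index at 24 h, polyploidy/DNA content at 48 h, also 72 h. Cells in DMEM/5% FBS, 37 °C, 5% CO2; compound 1 nM–30 μM. Binned A ≤1.0 μM, B ≤10.0 μM, C ≤30.0 μM, D >30.0 μM.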

In assay [2] the test system is HCT116. Description: MECP in cancer cell line. To be noted: Homo sapiens, HCT-116. The format is cell-based. In a few lines:
as §1

The test system of assay [3] is Hela. Description: MECP in cancer cell line. The format is cell-based. Particulars: Homo sapiens. The procedure, abridged: as §1
For assay [4], the system named is MDA-MB-231. Description: MECP in cancer cell line. The assay is classed as cell-based. Particulars: Homo sapiens. The procedure, abridged:
as §1

The subject of assay [5] is SW480. Description: MECP in cancer cell line. The assay is classed as cell-based. To be noted: Homo sapiens. The procedure, abridged: as §1
In assay [6] the test system is T2 HCC. Description: MECP in cancer cell line. The format is cell-based. To be noted: Mus musculus. In a few lines: as §1
In assay [7] the test system is NCI-H23. Nature of the assay: MECP in cancer cell line. The assay is classed as cell-based. Particulars: Homo sapiens. In a few lines:
as §1

Assay [8] has as its system NCI-N87. Description: MECP in cancer cell line. The format is cell-based. Particulars: Homo sapiens. The procedure, abridged:
as §1

Assay [9] has as its system A549. Description: MTT assay of cellular proliferation. The format is cell-based. Particulars: Homo sapiens, 50% inhibition of cellular proliferation. In a few lines: (§2)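 EC50 values reflect the compound concentration that halved proliferation, judged by mitochondrial reduction of MTT to formazan measured at A570. Drug exposure spanned 1 nM to 30 μM after cells reached 20-30% confluence in DMEM with 5% FBS.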
In general terms: Formazan colour is commonly taken as a measure of viable cells.

For assay [10], the system named is HCT116. Nature of the assay: MTT assay of cellular proliferation. The format is cell-based. Particulars: Homo sapiens, HCT-116, 50% inhibition of cellular proliferation. In a few lines:
as §2

In assay [11] the test system is Hela. Description: MTT assay of cellular proliferation. Particulars: Homo sapiens, 50% inhibition of cellular proliferation. The format is cell-based. In a few lines:
as §2

For assay [12], the system named is MDA-MB-231. Nature of the assay: MTT assay of cellular proliferation. The format is cell-based. Particulars: Homo sapiens; MDA-MB-231, MTT, 50% inhibition of cellular proliferation. The procedure, abridged: as §2
In assay [13] the test system is NCI-H23. Nature of the assay: MTT assay of cellular proliferation. The format is cell-based. To be noted: Homo sapiens, 50% inhibition of cellular proliferation. The procedure, abridged: as §2
For assay [14], the system named is NCI-N87. Nature of the assay: MTT assay of cellular proliferation. The assay is classed as cell-based. To be noted: Homo sapiens, 50% inhibition of cellular proliferation. In a few lines:
as §2

In assay [15] the test system is SW480. Description: MTT assay of cellular proliferation. The assay is classed as cell-based. To be noted: Homo sapiens, 50% inhibition of cellular proliferation. The procedure, abridged:
as §2

For assay [16], the system named is T2 HCC. Nature of the assay: MTT assay of cellular proliferation. The format is cell-based. To be noted: Mus musculus, 50% inhibition of cellular proliferation. In a few lines:
as §2

Assay [17] has as its system human breast cancer cell line MDA-MB-231. Nature of the assay: Xenograft assay. The format is in vivo. To be noted: MDA-MB-231 xenograft, Nu/Nu mice, 25 mg/kg oral gavage twice a day for 7 days. The method, then:
(§3) Xenografts were initiated in immunocompromised (Nu/Nu) mice with the human lung adenocarcinoma cell line NCI-H23 (FIG. 4A) and the human breast cancer cell line MDA-MB-231 (FIG. 4B). Seven million cells were injected subcutaneously into each mouse and treatment was initiated when the average tumor volumes reached 150 mm3 (n=5/group). Tumor-bearing mice were randomized into different groups to receive either vehicle or indicated compounds. The compounds were administered through oral gavage twice a day for 7 days. For these experiments, all compounds were first dissolved in DMSO and then diluted 1:10 into a mixture containing 50% PEG300 and 49% PBS, 1% Tween 80, pH2.2. 100 ul of drug solution was administered with each dose to each a dose of 25 mg/kg. Tumor volumes were determined from digital caliper raw data by using the formula: Volume (mm3)=(L×W^2)/2. The value W (Width) is the smaller of two perpendicular tumor axes and the value L (Length) is the larger of two perpendicular axes. Mean tumor volumes were calculated for each treatment group at the start point (day 0) and the endpoint (day 7). The percentage change of tumor volumes, defined as (Tumor […]˜Tumor Volume^day0)/Tumor Volume^day0×100% is presented.

For assay [18], the system named is human lung adenocarcinoma cell line NCI-H23. Nature of the assay: Xenograft assay. The format is in vivo. To be noted: Nu/Nu mice, 25 mg/kg oral gavage twice a day for 7 days. The method, then: as §3
Setting [19] is: read-out: Min. Effective conc. for Polyploidy (≥5%).

“Also recorded” adds a separate entry of the source. Like-named read-outs stand apart in the source and are kept apart here.

As usually defined, the EC50 is the concentration giving half of the maximal effect. Low readings indicate greater potency, high ones weaker potency. For the compound `COc1cc(Oc2ccnc3ccc(Br)cc23)cc(-n2cccn2)c1` [Compound 21, 6-bromo-4-(3-methoxy-5-(1H-pyrazol-1-yl)phenoxy)quinoline], the minimal effective concentration in the assay with RPEMYC^H2B-GFP cells (setting [19]), in the assay on RPEMYC^H2B-GFP cells (read-out: Mitotic Arrest (≥5%)), with A549 [1], in the assay on HCT116 [2], with Hela [3] and in the assay with MDA-MB-231 [4] was 0.001 to 1 µM in each case. The minimal effective concentration in the assay on SW480 [5], in the assay on T2 HCC [6], in the assay on NCI-H23 [7] and with NCI-N87 [8] was 0.001 to 1 µM throughout. Also, the IC50 in the assay with RPEMYC^H2B-GFP cells is 1 to 1000 nM. For the same compound, the half-maximal effective concentration (EC50) in the assay with A549 [9], in the assay on HCT116 [10], in the assay with Hela [11], with MDA-MB-231 [12], in the assay on NCI-H23 [13] and with NCI-N87 [14] was 1 to 1000 nM each time. For the same compound, the EC50 in the assay on SW480 [15] and in the assay on T2 HCC [16] was 1 to 1000 nM in each case. Also, the “tumor growth (percentage change of tumor volumes)” value in assay [17] and in assay [18] was “suppress the growth; also recorded: suppressing the tumor growth” each time.

Regarding `COc1cc(Oc2ccnc3cc(OC)c(OC)cc23)cc(-n2cccn2)c1` [Compound 26, 6,7-dimethoxy-4-(3-methoxy-5-(1H-pyrazol-1-yl)phenoxy)quinoline], the minimal effective concentration in the assay on RPEMYC^H2B-GFP cells (setting [19]), in the assay with RPEMYC^H2B-GFP cells (read-out: Mitotic Arrest (≥5%)), in the assay on A549 [1], in the assay with HCT116 [2], in the assay with Hela [3] and with MDA-MB-231 [4] was 0.001 to 1 µM in each case. Besides, the minimal effective concentration in the assay with SW480 [5], with T2 HCC [6], in the assay with NCI-H23 [7] and in the assay on NCI-N87 [8] was 0.001 to 1 µM throughout. In addition, the IC50 with RPEMYC^H2B-GFP cells lay within 1 to 1000 nM. Also, the EC50 in the assay on A549 [9], in the assay with HCT116 [10], with Hela [11], in the assay on MDA-MB-231 [12], in the assay on NCI-H23 [13] and in the assay with NCI-N87 [14] was 1 to 1000 nM throughout. Further, the EC50 in the assay on SW480 [15] and in the assay on T2 HCC [16] was 1 to 1000 nM each time. The “tumor growth (percentage change of tumor volumes)” value in assay [17] and in assay [18] was “suppress the growth; also recorded: suppressing the tumor growth” throughout.

For the compound `COc1cc(Oc2ccnc3ccsc23)cc(-n2cccn2)c1` [Compound 40, 7-(3-methoxy-5-(1H-pyrazol-1-yl)phenoxy)thieno[3,2-b]pyridine], the minimal effective concentration in the assay on RPEMYC^H2B-GFP cells (setting [19]), in the assay with RPEMYC^H2B-GFP cells (read-out: Mitotic Arrest (≥5%)), in the assay on A549 [1], in the assay on HCT116 [2], with Hela [3] and with MDA-MB-231 [4] was 0.001 to 1 µM each time. Besides, the minimal effective concentration in the assay on SW480 [5], with T2 HCC [6], in the assay with NCI-H23 [7] and in the assay on NCI-N87 [8] was 0.001 to 1 µM throughout. For the same compound, in the assay with RPEMYC^H2B-GFP cells, the IC50 lay in the range of 1 to 1000 nM. In addition, the EC50 in the assay on A549 [9], in the assay with HCT116 [10], with Hela [11], in the assay on MDA-MB-231 [12], in the assay with NCI-H23 [13] and with NCI-N87 [14] was 1 to 1000 nM throughout. Moreover, the concentration for a half-maximal effect (EC50) in the assay with SW480 [15] and in the assay on T2 HCC [16] was 1 to 1000 nM throughout. Further, the “tumor growth (percentage change of tumor volumes)” value in assay [17] and in assay [18] was “suppress the growth; also recorded: suppressing the tumor growth” throughout.

With `COc1cc(NC(C)=O)cc(Oc2ccnc3ccsc23)c1` [Compound 43, N-(3-methoxy-5-(thieno[3,2-b]pyridin-7-yloxy)phenyl)acetamide], the minimal effective concentration in the assay with RPEMYC^H2B-GFP cells (setting [19]), in the assay with RPEMYC^H2B-GFP cells (read-out: Mitotic Arrest (≥5%)), with A549 [1], in the assay with HCT116 [2], with Hela [3] and in the assay on MDA-MB-231 [4] was 0.001 to 1 µM each time. Moreover, the minimal effective concentration in the assay on SW480 [5], with T2 HCC [6], in the assay on NCI-H23 [7] and in the assay on NCI-N87 [8] was 0.001 to 1 µM throughout. The IC50 in the assay on RPEMYC^H2B-GFP cells was 1 to 1000 nM. In addition, the EC50 in the assay on A549 [9], in the assay with HCT116 [10], with Hela [11], with MDA-MB-231 [12], in the assay with NCI-H23 [13] and in the assay on NCI-N87 [14] was 1 to 1000 nM each time. The EC50 in the assay with SW480 [15] and in the assay on T2 HCC [16] was 1 to 1000 nM each time. Also, the “tumor growth (percentage change of tumor volumes)” value in [17] is “suppress the growth; also recorded: suppressing the tumor growth and even eliciting tumor regression”; in [18], “suppress the growth; also recorded: suppressing the tumor growth and even eliciting tumor regression”.
